Results: patent publication US4524206A, “1-Heteroaryl-4-(2,5-pyrrolidinedion-1-yl)alkyl)piperazine derivatives” (Mead Johnson & Company, priority 1983, dated 1985)

Experiment: pharmacological profile from the in vivo screening tests and in vitro receptor binding (tranquilizing profile)
Conditions: potential indicated by test profile
Excerpt: The following in vivo screening tests were utilized as the basis to determine the tranquilizing profile and potential side-effect liabilities of the instant compounds.
As further indication of the psychotropic activity and specificity of the instant compounds, state of the art in vitro central nervous system receptor binding methodology can be employed. […] Inhibition of radiolabeled ligand binding to such specific high affinity sites is considered a measure of a compound's ability to affect corresponding central nervous system functions or cause side effects in vivo. This principle is employed in the following in vitro assay which is given by way of example.
Another test predictive of side effects measures protection against norepinephrine lethality. This procedure essentially relates to alpha-block and the unwanted side effects which accompany it, such as sedation and blood pressure lowering.

With “3-(4-Fluorophenyl)-3-methyl-1-[4-[4-(2-pyrimidinyl)-1-piperazinyl]butyl]-2,5-pyrrolidinedione [Example 7]” the pharmacological profile was “potential non-dopaminergic antipsychotic activity”.

With `O=C1CC(c2ccccc2)(c2ccccc2)C(=O)N1CCCCN1CCN(c2ncccn2)CC1` [Example 9, 3,3-Diphenyl-1-[4-[4-(2-pyrimidinyl)-1-piperazinyl]butyl]-2,5-pyrrolidinedione] the pharmacological profile was “selective anxiolytic potential”.

In the case of `O=C1CC2(CCc3ccccc3C2)C(=O)N1CCCCN1CCN(c2ncccn2)CC1` (stereo not drawn) [Example 16, 1'-[4-[4-(2-Pyrimidinyl)-1-piperazinyl]butyl]spiro[1,2,3,4-tetrahydronaphthalene-2,3'-pyrrolidine-2',5'-dione]], the pharmacological profile is reported as “selective anxiolytic potential”.
